We go through one compound from US20230172925A1, “SKIN-CARE COMPOSITIONS AND USES THEREOF” (AHAVA - DEAD SEA LABORATORIES LTD., priority 2019, published 2023).

For data set [1], the system named is IL-1α. The data set is described as follows: Human skin organ culture with UVB stressor, IL-1α secretion in the medium. It counts as cell-based. The following applies: UVB. The method, then: (§1) Topical exposure till 48 hours in total (24 hr recovery following topical application+24 hr after exposure to UVB irradiation) with UVB radiation as stressor on human skin model
(§2) The following general procedure was used in the study:
(§3) Day 1: Topical application of 3 μl of each sample solution on the epidermis of each skin explant. Incubate for 24 hours. SDS 10% was applied only once, and was not farther irradiated with UVB.
(§4) Day 2: Skin explants were washed once with PBS and irradiated with UVB lamp at 200 mJ/cm2. After radiation it was incubated for 30 min and then topically apply each treatment (sample solution) again. Control was not irradiated under UVB light. UVB radiated control was without any treatment except radiation.
(§5) Day 3: Viability and Caspase3 activity were measured for the epidermis layer. The medium was collected for cytokines test.
FIG. 5 illustrates the IL-1α secretion results in the medium as observed with 3 to 4 repetition of the tests. In FIG. 5 the IL-1α secretion of the irradiated sample “UVB” was selected as 100% and it equals 8.1±1.0 pg/ml.

Data set [2] has as its system IL-1α. The data set is described as follows: Human skin organ culture without UVB stressor, IL-1α secretion. It counts as cell-based. As to conditions: no UVB; Retinol 1.0%; 48, 72 and 96 hours. The protocol: (§6) Topical Exposure Till 96 Hours without External UVB Radiation as Stressor on Human Skin Model
(§7) Day 1: Topical application of 3 μl of each solution on the epidermis of each skin explant. Incubate for 24 hours. (SDS Irritation control: topical application of 3 ul SDS 10% was applied on the skin model at day 1 only. The rest of the days samples were untouched).
(§8) Day 2: Topical application of 3 μl of each solution on the epidermis of each skin explant. Incubate for 24 hours in fresh medium (medium was not collected). (UVB control: after 24 hours incubation with 3 μl H2O skin was irradiated with 200 mJ/cm2 UVB. The rest of the experiment days sample were topically applied with H2O, as control).
(§9) Day 3: Topical application of 3 μl of each solution on the epidermis of each skin explant. Incubate for 24 hours in fresh medium (medium was collected)—48 hours of total topical incubation.
(§10) Day 4: Topical application of 3 μl of each solution on the epidermis of each skin explant. Incubate for 24 hours in fresh medium (medium was collected)—72 hours of total topical incubation.
(§11) Day 5: Topical application of 3 μl of each solution on the epidermis of each skin explant. Incubate for 24 hours in fresh medium (medium was collected)—96 hours of total topical incubation. MTT assay was performed.
FIG. 9A illustrates the IL-1α secretion results in the medium. In FIG. 9A the IL-1α secretion of the H2O sample was used as a control (9.0±0.7 pg/ml […]) for each time point. FIG. 9B is a magnification of FIG. 9A.

The subject of another data set is skin equivalents. The data set is described as follows: DNA microarray gene expression in skin equivalents, comparative with 3D complex and Retinol (Example 6). It is filed as cell-based, human. As to conditions: Retinol 5 μM. The protocol: In the present study the biological activity on gene expression of the pRETINOL complex was compared to the activity of a composition which was previously described in [13] and [14] and referred to herein as 3D complex. The activity was further compared to that observed with Retinol (5 μM of Retinol in double distilled water).
On each array, treated vs. untreated samples were compared. Each array was processed and the data from all arrays was normalized to get the average expression and log fold change (log FC) for each gene on each array.
An analysis of full human genome was performed.
Further to the above analysis, similar to the study presented in Example 5, major skin related pathways were selected from KEGG and wiki pathways list and the p-value and z-score were calculated for these pathways.

Data set [3] relates to human skin explants (epidermis). The data set is described as follows: Human skin organ culture without UVB stressor, topical exposure till 96 hours, viability by MTT assay. It counts as cell-based. The following applies: no UVB; 96 hours of topical application; vs control. The method, then: as §6, §7, §8, §9, §10
Day 5: Topical application of 3 μl of each solution on the epidermis of each skin explant. Incubate for 24 hours in fresh medium (medium was collected)—96 hours of total topical incubation. MTT assay was performed. […]
The viability of the various skin explants was measured by the MTT assay.
(Tetrazolium dyes change colour on reduction, which living cells bring about.)

The test system is the same in data set [4]. The data set is described as follows: Human skin organ culture with UVB stressor, viability by MTT assay. As to conditions: UVB 200 mJ/cm2, topical 3 μl before and after irradiation, 48 hours in total; compared to irradiated control. It is filed as cell-based. The protocol: as §1, §2, §3, §4, §5
FIG. 2 illustrates a flow diagram of topical exposure/treatment till 48 hours, 24 hr recovery following topical application +24 hr after exposure to UVB irradiation) with UVB radiation as stressor on human skin model experiment. In the Experiment the SDS irritation control sample was a skin explant that was topical applied with 3 μl SDS 10% solution at day 1 only.
The viability of the various skin explants was measured by the 5-dimethylthiazol-2-yl]-2,5-diphenyl tetrazolium bromide (MTT) assay.

Data set [5] has as its system TNFα. The data set is described as follows: Human skin organ culture with UVB stressor, TNFα secretion in the medium. It counts as cell-based. The following applies: UVB. The protocol:
as §1, §2, §3, §4, §5
FIG. 4 illustrates the TNFα secretion results in the medium as observed with 2 to 4 repetition of the tests. In FIG. 4 the TNFα secretion of the irradiated sample “UVB” was selected as 100% and it equals 53±30 pg/ml.

The subject of data set [6] is human primary fibroblasts. The data set is described as follows: Hyaluronic acid production assay (ELISA). The following applies: Retinol 1.0 μM in the culture media; 48 hours. It is filed as cell-based. The protocol: The human primary fibroblast cell culture was grown at an 80% confluence in Dulbecco's Modified Eagle's High glucose (Hg) medium (DMEM) culture medium containing 10% fetal bovine serum, 100 U/ml penicillin, and 100 U/ml streptomycin. The cells were cultivated in 6 wells plates.
The pRetinol complex was added at a final concentrations of. Osmoter 0.2%, Dunaliella salina extract 1.2%, Niacinimide 0.04% and 6.24 ppm of β-Carotene i.e., 2.5 times dilution (the dilution was necessary in view of the human primary fibroblast cells culture being more sensitive than skin full organ culture). Retinol was added to the medium at a final concentration of 1.0 μM.
The cells were incubated at 37° C., 5% CO2 at a 100% RH for 48 hours. After incubation the cells were extracted using RIPA buffer collected to a blending Eppendorf and ground using stain steal beads and a bullet blender for 5 min. The samples were centrifuged for 15 min at 5000 rpm and the supernatant was collected.
BCA Protein concentration assay were performed on all the samples. The protein level for all samples was dilated to reach a concentration of 0.1 ng/ml of protein, diluted with PBS. Samples contain a protein concentration of 0.1 ng/ml were tested for hyaluronic ELISA assay kit (R&D systems, ELISA kit). Results were obtained as ng/ml of hyaluronic acid per 1 μg of protein. […]
In general terms: An ELISA detects its analyte on a solid surface through an enzyme-linked reagent.

In data set [7] the test system is TNFα. The data set is described as follows: Human skin organ culture without UVB stressor, TNFα secretion. It is filed as cell-based. As to conditions: no UVB. The protocol: as §6, §7, §8, §9, §10, §11
FIG. 8 illustrates the TNFα secretion tested results. In FIG. 8 the TNFα secretion of the H2O sample was used as a control (0.35±0.05 pg/ml) for each time point.

“Also recorded” adds a separate entry of the source.

As to `CC1=C(/C=C/C(C)=C/C=C/C(C)=C/CO)C(C)(C)CCC1` [Retinol], the “increase of IL-1α secretion” value in the data set on IL-1α [1] (Retinol 0.05% (w/w) in EtOH) turned out to be 83%; in the data set with IL-1α [1] (Retinol 0.5% (w/w) in EtOH), 50%; with IL-1α [1] (Retinol 1.0% (w/w) in EtOH) it was 53%. The IL-1α secretion entry in the data set on IL-1α [2] is “increased; also recorded: caused an increase”. Also, the z-score with skin equivalents (KEGG_APOPTOSIS) is 1.0758; in the data set on skin equivalents (KEGG_BASE_EXCISION_REPAIR), −0.2818; in the data set on skin equivalents (KEGG_NF_KAPPA_B_SIGNALING_PATHWAY), −0.4673; with skin equivalents (KEGG_NOD-LIKE_RECEPTOR SIGNALING PATHWAY), −0.3502; in the data set on skin equivalents (KEGG_SPHINGOLIPID_METABOLISM), −0.6417; in the data set on skin equivalents (KEGG_TNF_SIGNALING_PATHWAY) it was −1.1097. In addition, the results for the z-score with skin equivalents (KEGG_YERSINIA_INFECTION) and in the data set on skin equivalents (WIKI_KERATINIZATION) were 1.5054 and 10.548, respectively. In data set [3], the “viability (MTT, mitochondrial activity) of skin explants” value is on record as “did not cause increase or reduction of viability”. Moreover, in data set [4], the “viability (MTT, mitochondrial activity) of epidermis” value is listed as “increased mitochondrial activity”. In addition, the results for the “reduction of TNFα secretion compared to the irradiated sample” value in the data set on TNFα [5] (Retinol 0.5% (w/w) in EtOH) and with TNFα [5] (Retinol 1.0% (w/w) in EtOH) were 56% and 45%, respectively. For the same compound, the “production of hyaluronic acid compared to the control sample” value in data set [6] was “induce the production of hyaluronic acid”. Besides, the TNFα secretion result is reported as “below the detection level” with TNFα [7] (Retinol 0.5%, after incubation of 72 hours, H2O control 0.35±0.05 pg/ml); “below the detection level” with TNFα [7] (Retinol 1.0%, after incubation of 72 hours, H2O control 0.35±0.05 pg/ml); “caused a reduction” in the data set with TNFα [7] (Retinol for 48, 72 and 96 hours, reduction also observed with ethanol only).
